Measurements published in ChEMBL document CHEMBL1201862, “PubChem BioAssay data set” (2004).
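96-well plates; 48 h exposure; 5 concentrations. Endpoints by linear interpolation between flanking doses. Not reached: highest tested concentration assigned. At the GI50, growth is halved.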 Calls of active or inactive are those of the source. No stated cut-off is given here; in the data, active = GI50 up to about 1.1 µM and inactive = higher.

Key:
Test in all cases: growth of human tumour cells (NCI), 48 h
DLD-1 = system: DLD-1
NCI-H522 = system: NCI-H522
M19-MEL = system: M19-MEL
SNB-75 = system: SNB-75
OVCAR-4 = system: OVCAR-4
IGROV-1 = system: IGROV-1
HOP-92 = system: HOP-92
HOP-62 = system: HOP-62
DMS-273 = system: DMS-273
SF-268 = system: SF-268
LOX IMVI = system: LOX IMVI
NCI-H460 = system: NCI-H460
786-0 = system: 786-0
CCRF-CEM = system: CCRF-CEM
NCI-H226 = system: NCI-H226
OVCAR-5 = system: OVCAR-5
ACHN = system: ACHN
Malme-3M = system: Malme-3M
KM12 = system: KM12
SK-MEL-2 = system: SK-MEL-2
MOLT-4 = system: MOLT-4
NCI-H23 = system: NCI-H23
UACC-62 = system: UACC-62
SF-539 = system: SF-539
SK-OV-3 = system: SK-OV-3
OVCAR-3 = system: OVCAR-3
M14 = system: M14
SK-MEL-5 = system: SK-MEL-5
SR = system: SR
UO-31 = system: UO-31
COLO 205 = system: COLO 205
KM-20L2 = system: KM-20L2
A498 = system: A498
HT-29 = system: HT-29
A549 = system: A549
HCC 2998 = system: HCC 2998
XF498 = system: XF498
RPMI-8226 = system: RPMI-8226
SK-MEL-28 = system: SK-MEL-28
HCT-15 = system: HCT-15
UACC-257 = system: UACC-257
SNB-78 = system: SNB-78
HCT-116 = system: HCT-116
HL-60 = system: HL-60
EKVX = system: EKVX
SN12C = system: SN12C
LXFL 529 = system: LXFL 529
OVCAR-8 = system: OVCAR-8
TK-10 = system: TK-10
SF-295 = system: SF-295
U-251 = system: U-251
RXF 393 = system: RXF 393
HOP-18 = system: HOP-18
DMS-114 = system: DMS-114
SNB-19 = system: SNB-19
SW-620 = system: SW-620
CAKI-1 = system: CAKI-1
K562 = system: K562

**Q.** How did the GI50 (DLD-1) turn out when Cc1c(-c2coc(-c3ccc(Cl)cc3)n2)c(=O)n(-c2ccccc2)n1C was run?
**A.** > 100 µM (inactive)

**Q.** What about the GI50 (NCI-H522) of the same molecule?
**A.** > 100 µM (inactive)

**Q.** What about the GI50 (M19-MEL) of the same molecule?
**A.** > 100 µM (inactive)

**Q.** And the GI50 (SNB-75)?
**A.** > 100 µM (inactive)

**Q.** What about the GI50 (OVCAR-4) of the same molecule?
**A.** > 100 µM (inactive)

**Q.** What about the GI50 (IGROV-1) of the same molecule?
**A.** > 100 µM (inactive)

**Q.** And the GI50 (HOP-92)?
**A.** > 100 µM (inactive)

**Q.** And the GI50 (HOP-62)?
**A.** > 100 µM (inactive)

**Q.** And the GI50 (DMS-273)?
**A.** > 100 µM (inactive)

**Q.** What about the GI50 (SF-268) of the same molecule?
**A.** > 100 µM (inactive)

**Q.** What about the GI50 (LOX IMVI) of the same molecule?
**A.** > 100 µM (inactive)

**Q.** And the GI50 (NCI-H460)?
**A.** > 100 µM (inactive)

**Q.** And the GI50 (786-0)?
**A.** > 100 µM (inactive)

**Q.** And the GI50 (CCRF-CEM)?
**A.** > 100 µM (inactive)

**Q.** And the GI50 (NCI-H226)?
**A.** > 100 µM (inactive)

**Q.** And the GI50 (OVCAR-5)?
**A.** > 100 µM (inactive)

**Q.** What about the GI50 (ACHN) of the same molecule?
**A.** > 100 µM (inactive)

**Q.** What about the GI50 (Malme-3M) of the same molecule?
**A.** > 100 µM (inactive)

**Q.** What about the GI50 (KM12) of the same molecule?
**A.** > 100 µM (inactive)

**Q.** And the GI50 (SK-MEL-2)?
**A.** > 100 µM (inactive)

**Q.** And the GI50 (MOLT-4)?
**A.** > 100 µM (inactive)

**Q.** What about the GI50 (NCI-H23) of the same molecule?
**A.** > 100 µM (inactive)

**Q.** What about the GI50 (UACC-62) of the same molecule?
**A.** > 100 µM (inactive)

**Q.** And the GI50 (SF-539)?
**A.** > 100 µM (inactive)

**Q.** What about the GI50 (SK-OV-3) of the same molecule?
**A.** > 100 µM (inactive)

**Q.** And the GI50 (OVCAR-3)?
**A.** 93.3 µM (inactive)

**Q.** And the GI50 (M14)?
**A.** > 100 µM (inactive)

**Q.** What about the GI50 (SK-MEL-5) of the same molecule?
**A.** > 100 µM (inactive)

**Q.** What about the GI50 (SR) of the same molecule?
**A.** > 100 µM (inactive)

**Q.** What about the GI50 (UO-31) of the same molecule?
**A.** > 100 µM (inactive)

**Q.** What about the GI50 (COLO 205) of the same molecule?
**A.** > 100 µM (inactive)

**Q.** What about the GI50 (KM-20L2) of the same molecule?
**A.** > 100 µM (inactive)

**Q.** And the GI50 (A498)?
**A.** > 100 µM (inactive)

**Q.** What about the GI50 (HT-29) of the same molecule?
**A.** > 100 µM (inactive)

**Q.** What about the GI50 (A549) of the same molecule?
**A.** > 100 µM (inactive)

**Q.** And the GI50 (HCC 2998)?
**A.** 9.4 µM (inactive)

**Q.** And the GI50 (XF498)?
**A.** 19.1 µM (inactive)

**Q.** And the GI50 (RPMI-8226)?
**A.** > 100 µM (inactive)

**Q.** And the GI50 (SK-MEL-28)?
**A.** > 100 µM (inactive)

**Q.** What about the GI50 (HCT-15) of the same molecule?
**A.** > 100 µM

**Q.** And the GI50 (UACC-257)?
**A.** > 100 µM (inactive)

**Q.** What about the GI50 (SNB-78) of the same molecule?
**A.** > 100 µM (inactive)

**Q.** And the GI50 (HCT-116)?
**A.** > 100 µM (inactive)

**Q.** And the GI50 (HL-60)?
**A.** > 100 µM (inactive)

**Q.** And the GI50 (EKVX)?
**A.** > 100 µM (inactive)

**Q.** And the GI50 (SN12C)?
**A.** > 100 µM (inactive)

**Q.** And the GI50 (LXFL 529)?
**A.** > 100 µM (inactive)

**Q.** And the GI50 (OVCAR-8)?
**A.** > 100 µM (inactive)

**Q.** And the GI50 (TK-10)?
**A.** > 100 µM (inactive)

**Q.** And the GI50 (SF-295)?
**A.** > 100 µM (inactive)

**Q.** What about the GI50 (U-251) of the same molecule?
**A.** > 100 µM (inactive)

**Q.** For C[C@H]1C=C2C(=O)O[C@H]3CC[C@@H](C1)[C@@]23O, which GI50 (DLD-1) is on record?
**A.** 2.7 µM (inactive)

**Q.** And the GI50 (NCI-H522)?
**A.** 2.51 µM (inactive)

**Q.** What about the GI50 (RXF 393) of the same molecule?
**A.** 2.79 µM (inactive)

**Q.** What about the GI50 (M19-MEL) of the same molecule?
**A.** 3.76 µM (inactive)

**Q.** And the GI50 (SNB-75)?
**A.** 5.87 µM (inactive)

**Q.** And the GI50 (OVCAR-4)?
**A.** 10.3 µM (inactive)

**Q.** And the GI50 (IGROV-1)?
**A.** 6.03 µM (inactive)

**Q.** And the GI50 (HOP-92)?
**A.** 5.25 µM (inactive)

**Q.** What about the GI50 (HOP-62) of the same molecule?
**A.** > 10 µM (inactive)

**Q.** And the GI50 (SF-268)?
**A.** 3.13 µM (inactive)

**Q.** What about the GI50 (LOX IMVI) of the same molecule?
**A.** 2.55 µM (inactive)

**Q.** What about the GI50 (NCI-H460) of the same molecule?
**A.** 6 µM (inactive)

**Q.** And the GI50 (786-0)?
**A.** 3.28 µM (inactive)

**Q.** And the GI50 (CCRF-CEM)?
**A.** 2.01 µM (inactive)

**Q.** What about the GI50 (NCI-H226) of the same molecule?
**A.** 12.5 µM (inactive)

**Q.** And the GI50 (OVCAR-5)?
**A.** 4.33 µM (inactive)

**Q.** And the GI50 (ACHN)?
**A.** 4.97 µM (inactive)

**Q.** What about the GI50 (Malme-3M) of the same molecule?
**A.** 7.03 µM (inactive)

**Q.** And the GI50 (KM12)?
**A.** 2.92 µM (inactive)

**Q.** What about the GI50 (SK-MEL-2) of the same molecule?
**A.** 2.71 µM (inactive)

**Q.** What about the GI50 (MOLT-4) of the same molecule?
**A.** 1.21 µM (inactive)

**Q.** What about the GI50 (NCI-H23) of the same molecule?
**A.** 2.8 µM (inactive)

**Q.** What about the GI50 (UACC-62) of the same molecule?
**A.** 3.18 µM (inactive)

**Q.** What about the GI50 (SF-539) of the same molecule?
**A.** 2.03 µM (inactive)

**Q.** What about the GI50 (HOP-18) of the same molecule?
**A.** 3.18 µM (inactive)

**Q.** What about the GI50 (SK-OV-3) of the same molecule?
**A.** 8 µM (inactive)

**Q.** And the GI50 (OVCAR-3)?
**A.** 5.38 µM (inactive)

**Q.** What about the GI50 (M14) of the same molecule?
**A.** 3.83 µM (inactive)

**Q.** What about the GI50 (SK-MEL-5) of the same molecule?
**A.** 4.13 µM (inactive)

**Q.** What about the GI50 (SR) of the same molecule?
**A.** 0.233 µM (active)

**Q.** What about the GI50 (DMS-114) of the same molecule?
**A.** 2.62 µM (inactive)

**Q.** What about the GI50 (UO-31) of the same molecule?
**A.** 18.2 µM (inactive)

**Q.** What about the GI50 (COLO 205) of the same molecule?
**A.** 3.26 µM (inactive)

**Q.** And the GI50 (KM-20L2)?
**A.** 4.91 µM (inactive)

**Q.** What about the GI50 (A498) of the same molecule?
**A.** 10.6 µM (inactive)

**Q.** What about the GI50 (HT-29) of the same molecule?
**A.** 3.97 µM (inactive)

**Q.** And the GI50 (A549)?
**A.** 11.2 µM (inactive)

**Q.** And the GI50 (HCC 2998)?
**A.** 13.8 µM (inactive)

**Q.** And the GI50 (SNB-19)?
**A.** 16.3 µM (inactive)

**Q.** What about the GI50 (RPMI-8226) of the same molecule?
**A.** 29.6 µM (inactive)

**Q.** What about the GI50 (SK-MEL-28) of the same molecule?
**A.** 4.07 µM (inactive)

**Q.** What about the GI50 (HCT-15) of the same molecule?
**A.** 3.65 µM

**Q.** And the GI50 (UACC-257)?
**A.** 10.3 µM (inactive)

**Q.** What about the GI50 (SNB-78) of the same molecule?
**A.** 2.82 µM (inactive)

**Q.** What about the GI50 (HCT-116) of the same molecule?
**A.** 2.75 µM (inactive)

**Q.** What about the GI50 (HL-60) of the same molecule?
**A.** 2.12 µM (inactive)

**Q.** And the GI50 (EKVX)?
**A.** 2.67 µM (inactive)

**Q.** And the GI50 (SN12C)?
**A.** 2.4 µM (inactive)

**Q.** And the GI50 (SW-620)?
**A.** 3.28 µM (inactive)

**Q.** What about the GI50 (CAKI-1) of the same molecule?
**A.** 3.72 µM (inactive)

**Q.** What about the GI50 (K562) of the same molecule?
**A.** 2.37 µM (inactive)

**Q.** What about the GI50 (LXFL 529) of the same molecule?
**A.** 2.93 µM (inactive)

**Q.** What about the GI50 (OVCAR-8) of the same molecule?
**A.** 3.39 µM (inactive)

**Q.** And the GI50 (TK-10)?
**A.** 4.68 µM (inactive)

**Q.** What about the GI50 (SF-295) of the same molecule?
**A.** 4.4 µM (inactive)

**Q.** What about the GI50 (U-251) of the same molecule?
**A.** 6.44 µM (inactive)
